Legend:
[1] = Dissociation of complex over time monitored by 1H NMR; format: physicochemical; settings: for % Dissociation Anions / % Dissociation Acidic: 10 mM Co^II complex; for % Dissociation Anions: 0.40 mM Na2HPO4, 25 mM K2CO3, 100 mM NaCl, pD 7.5-7.9, 12 hours at 37° C.; for % Dissociation Acidic: pD 3.5-3.9, 100 mM NaCl, 12 hours at 37° C.; for dissociation in presence of phosphate and carbonate (in words) / dissociation under acidic conditions (in words): 10 mM complex, 100 mM NaCl; for dissociation in presence of phosphate and carbonate (in words): 0.40 mM Na2HPO4, 25 mM K2CO3, pD 7.5-7.9, 12 hrs at 37° C.; for dissociation under acidic conditions (in words): D2O, pD 3.5-3.9, 1 hr vs 12 hrs (NOPE 4 hrs) at 37° C.
Experimental: Dissociation of the Co^II complexes was monitored via ^1H NMR spectroscopy of samples incubated at 37° C. over a period of 12 hours. To monitor acid dissociation, samples contained 10 mM Co^II complex, 100 mM NaCl, and 3-5 mM 3-(trimethylsilyl)-1-propanesulfonic acid sodium salt as a standard at pD 3.5-3.9. To assess the complexes in the presence of biologically relevant anions, solutions contained 10 mM Co^II complex, 100 mM NaCl, 0.40 mM Na2HPO4, 25 mM K2CO3, and 5 mM 3-(trimethylsilyl)-1-propanesulfonic acid sodium salt as a standard. Generally, 1024 transients were collected for each spectrum. […]

[2] = CEST MR phantom imaging on 4.7 T scanner; settings: 4 mM complex, pH 7.4-7.5, 37° C.; for % CEST: 20 mM HEPES, 100 mM NaCl, 4.7 T MRI scanner
Experimental: CEST MR images were acquired at 4.7 Tesla preclinical MR scanner using a 35 mm transceiver coil (ParaVision 3.0.2, Bruker Biospin, Billerica, Mass.) as detailed elsewhere. Two spoiled gradient-echo images (TE/TR=2.1/5010 ms, flip angle=90 deg) were acquired at 37° C. after employing a pulse train comprised of five Gauss pulses ([…] for 1 second each, interpulse delay of 200 μs) applied symmetrically about the bulk water resonance.
Image processing was carried out using in-house software algorithms developed in MATLAB (MathWorks, Natick, Mass.). Each image was normalized to the mean intensity of the buffer/salt phantom, and the mean signal intensity of each compound was sampled. The percent change in signal, or CEST effect (CE), was calculated as: CE=(1−SIon/SIoff)*100%, where SIon and SIoff represent the mean signal intensity of each sample with the pre-saturation pulse applied on- and off-resonance of the exchangeable protons, respectively. CEST images (FIGS. 14, 15) were calculated by determining CE on a pixel-by-pixel basis in MATLAB. To improve visualization of the CEST effect, images were filtered with a spatial averaging filter (kernel size=5×5), background noise was removed using a binary mask of the samples, and a ‘hotiron’ color lookup table was applied. […] Imaging parameters for the FID-FISP acquisition include: matrix=128×128, field of view=3.2×3.2 cm, TE/TR=1.5/3.0 ms, flip angle=90, number of repetitions=20. Processing was carried out as above with the exception that the 20 repetition image datasets were averaged together prior to normalization by the buffer signal intensity. The experiment was repeated with three separate preparations of [Co(CCRM)]^2+.
CEST images were acquired on a 4.7 Tesla preclinical MR scanner using a 35 mm radiofrequency coil and the ParaVision 3.0.2 research platform (Bruker Biospin, Billerica, Mass.). A pair of gradient-echo MR images were acquired at either 37° C. with a pre-saturation pulse train comprised of five 1 second Gauss pulses (12 μT, 200 μs interpulse delay) applied symmetrically about the bulk water resonance (+/−135 ppm). Other pertinent acquisition parameters include: echo time/repetition time=2.1/5010 ms, flip angle=90 deg, acquisition matrix=160×160, slice thickness=2 mm, field of view=32×32 mm, averages=1.
To determine the CEST effect, each image was normalized to the signal intensity of the buffer and salt-only phantom and the normalized image intensity of each phantom was sampled using commercially available software (Analyze 7.0, AnalyzeDirect Inc., Overland Park, Kans.). The percent loss of signal due to […] exchange was calculated using the following equation: % CEST=1−SIon/SIoff, eq. 9 where SIon and SIoff are the image intensities of each sample acquired with on-resonance and off-resonance pre-saturation pulses, respectively. To create the CEST image (FIG. 46), raw k-space data was zero-filled to a 512×512 matrix, reconstructed to spatial domain, filtered with a spatial low-pass filter (kernel size: 11×11) to improve signal-to-noise, and then normalized by image intensity of the buffer and salt-only phantom. The % CEST effect was calculated pixel-by-pixel using the normalized on/off resonance image pair in MATLAB (MathWorks, Natick, Mass.). Phantoms in the CEST image were isolated using binary masking techniques, and a “hot-iron” pseudocolor lookup table was applied to enhance perceptual contrast between samples.

| % Dissociation Anions [1] | % Dissociation Acidic [1] | dissociation in presence of phosphate and carbonate (in words) [1] | dissociation under acidic conditions (in words) [1] | dissociation under acidic conditions within the first hour ([1]; pD 3.5-3.9, 37° C., first hour) | SMILES | % CEST, peak at 95 ppm ([2]; peak at 95 ppm, 4.7 T) | % CEST, peak at 112 ppm ([2]; peak at 112 ppm, 4.7 T) | % CEST [2] |
| --- | --- | --- | --- | --- | --- | --- | --- | --- |
| 5% | 95% | doesn't dissociate | doesn't dissociate | 95% | NC(=O)CN1CCCN(CC(N)=O)CCN(CC(N)=O)CCCN(CC(N)=O)CC1.[Co+2] [[Co(CCRM)]^2+] | 5% | 8% | – |
| <1% | 16% | doesn't dissociate | doesn't dissociate | – | NC(=O)CN1CCOCCOCCN(CC(N)=O)CCOCC1.[Co+2] [[Co(NOPE)]^2+] | – | – | 12% |
| 2% | 7% | doesn't dissociate | doesn't dissociate | – | NC(=O)CN1CCN(CC(N)=O)CCN(CC(N)=O)CCN(CC(N)=O)CC1.[Co+2] [[Co(TCMC)]^2+] | – | – | 12% |
| 5% | 1% | doesn't dissociate | doesn't dissociate | – | NC(=O)CN1CCN(CC(N)=O)CCN(CC(N)=O)CC1.[Co+2] [[Co(TCMT)]^2+] | – | – | 8% |

Source: patent publication US10960088B2, “Macrocycles, cobalt and iron complexes of same, and methods of making and using same” (The Research Foundation for The State University of New York, priority 2013, dated 2021)
